Results as given in PubChem BioAssay (NCI).
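96-well plates; 48 h exposure; 5 concentrations. Endpoints by linear interpolation between flanking doses. Not reached: highest tested concentration assigned. At the TGI there is no net growth.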

How the values were obtained:
Experiment in all cases: growth of human tumour cells (NCI), 48 h
NCI-H226 lung = test system: NCI-H226 lung
UACC-62 melanoma = test system: UACC-62 melanoma
KM12 colon = test system: KM12 colon
A549 NSCLC = test system: A549 NSCLC
SF-539 CNS = test system: SF-539 CNS
HL-60(TB) leukemia = test system: HL-60(TB) leukemia
MDA-N = test system: MDA-N
SK-MEL-2 melanoma = test system: SK-MEL-2 melanoma
786-0 renal = test system: 786-0 renal
SF-268 CNS = test system: SF-268 CNS
K-562 leukemia = test system: K-562 leukemia
SNB-75 CNS = test system: SNB-75 CNS
PC-3 prostate = test system: PC-3 prostate
HS 578T breast = test system: HS 578T breast
CCRF-CEM leukemia = test system: CCRF-CEM leukemia
HOP-62 NSCLC = test system: HOP-62 NSCLC
SW-620 colon = test system: SW-620 colon
OVCAR-4 ovarian = test system: OVCAR-4 ovarian
M14 melanoma = test system: M14 melanoma
NCI/ADR-RES ovarian = test system: NCI/ADR-RES ovarian
U251 CNS = test system: U251 CNS
NCI-H522 lung = test system: NCI-H522 lung
HCT-15 colon = test system: HCT-15 colon
NCI-H460 lung = test system: NCI-H460 lung
UO-31 renal = test system: UO-31 renal
HOP-92 NSCLC = test system: HOP-92 NSCLC
MALME-3M melanoma = test system: MALME-3M melanoma
MCF7 breast = test system: MCF7 breast
OVCAR-5 ovarian = test system: OVCAR-5 ovarian
T-47D breast = test system: T-47D breast
HCT-116 colon = test system: HCT-116 colon
OVCAR-8 ovarian = test system: OVCAR-8 ovarian
TK-10 renal = test system: TK-10 renal
HCC-2998 colon = test system: HCC-2998 colon
SK-MEL-5 melanoma = test system: SK-MEL-5 melanoma
MOLT-4 leukemia = test system: MOLT-4 leukemia
SK-OV-3 ovarian = test system: SK-OV-3 ovarian
SF-295 CNS = test system: SF-295 CNS
RPMI-8226 leukemia = test system: RPMI-8226 leukemia
MDA-MB-231 breast = test system: MDA-MB-231 breast
CAKI-1 renal = test system: CAKI-1 renal
ACHN renal = test system: ACHN renal
MDA-MB-435 = test system: MDA-MB-435
SN12C renal = test system: SN12C renal
A498 renal = test system: A498 renal
OVCAR-3 ovarian = test system: OVCAR-3 ovarian
SK-MEL-28 melanoma = test system: SK-MEL-28 melanoma
BT-549 breast = test system: BT-549 breast
RXF 393 renal = test system: RXF 393 renal
HT29 colon = test system: HT29 colon
IGROV1 ovarian = test system: IGROV1 ovarian
UACC-257 melanoma = test system: UACC-257 melanoma
DU-145 prostate = test system: DU-145 prostate
LOX IMVI melanoma = test system: LOX IMVI melanoma
SNB-19 CNS = test system: SNB-19 CNS
EKVX NSCLC = test system: EKVX NSCLC
NCI-H23 lung = test system: NCI-H23 lung
COLO 205 colon = test system: COLO 205 colon

Nc1ncnc2c1ccn2COC(CO)CO
TGI (NCI-H226 lung): > 100 µM
TGI (UACC-62 melanoma): > 100 µM
TGI (KM12 colon): > 100 µM
TGI (A549 NSCLC): > 100 µM
TGI (SF-539 CNS): > 100 µM
TGI (HL-60(TB) leukemia): > 100 µM
TGI (MDA-N): > 100 µM
TGI (SK-MEL-2 melanoma): > 100 µM
TGI (786-0 renal): > 100 µM
TGI (SF-268 CNS): > 100 µM
TGI (K-562 leukemia): > 100 µM
TGI (SNB-75 CNS): > 100 µM
TGI (PC-3 prostate): > 100 µM
TGI (HS 578T breast): > 100 µM
TGI (CCRF-CEM leukemia): > 100 µM
TGI (HOP-62 NSCLC): > 100 µM
TGI (SW-620 colon): > 100 µM
TGI (OVCAR-4 ovarian): > 100 µM
TGI (M14 melanoma): > 100 µM
TGI (NCI/ADR-RES ovarian): > 100 µM
TGI (U251 CNS): > 100 µM
TGI (NCI-H522 lung): > 100 µM
TGI (HCT-15 colon): > 100 µM
TGI (NCI-H460 lung): > 100 µM
TGI (UO-31 renal): > 100 µM
TGI (HOP-92 NSCLC): > 100 µM
TGI (MALME-3M melanoma): > 100 µM
TGI (MCF7 breast): > 100 µM
TGI (OVCAR-5 ovarian): > 100 µM
TGI (T-47D breast): > 100 µM
TGI (HCT-116 colon): > 100 µM
TGI (OVCAR-8 ovarian): > 100 µM
TGI (TK-10 renal): > 100 µM
TGI (HCC-2998 colon): > 100 µM
TGI (SK-MEL-5 melanoma): > 100 µM
TGI (MOLT-4 leukemia): > 100 µM
TGI (SK-OV-3 ovarian): > 100 µM
TGI (SF-295 CNS): > 100 µM
TGI (RPMI-8226 leukemia): > 100 µM
TGI (MDA-MB-231 breast): > 100 µM
TGI (CAKI-1 renal): > 100 µM
TGI (ACHN renal): > 100 µM
TGI (MDA-MB-435): > 100 µM
TGI (SN12C renal): > 100 µM
TGI (A498 renal): > 100 µM
TGI (OVCAR-3 ovarian): > 100 µM
TGI (SK-MEL-28 melanoma): > 100 µM
TGI (BT-549 breast): > 100 µM
TGI (RXF 393 renal): > 100 µM
TGI (HT29 colon): > 100 µM
TGI (IGROV1 ovarian): > 100 µM
TGI (UACC-257 melanoma): > 100 µM
TGI (DU-145 prostate): > 100 µM
TGI (LOX IMVI melanoma): > 100 µM
TGI (SNB-19 CNS): > 100 µM
TGI (EKVX NSCLC): > 100 µM
TGI (NCI-H23 lung): > 100 µM

O=C(O)C(F)(F)C(F)(F)C(F)(F)C(F)(F)C(F)(F)C(F)(F)C(F)(F)C(F)(F)F
TGI (NCI-H226 lung): > 100 µM
TGI (UACC-62 melanoma): > 100 µM
TGI (KM12 colon): > 100 µM
TGI (A549 NSCLC): > 100 µM
TGI (SF-539 CNS): > 100 µM
TGI (HL-60(TB) leukemia): 62.4 µM
TGI (MDA-N): > 100 µM
TGI (786-0 renal): > 100 µM
TGI (SF-268 CNS): > 100 µM
TGI (K-562 leukemia): 92.4 µM
TGI (SNB-75 CNS): > 100 µM
TGI (PC-3 prostate): > 100 µM
TGI (HS 578T breast): > 100 µM
TGI (CCRF-CEM leukemia): > 100 µM
TGI (HOP-62 NSCLC): > 100 µM
TGI (SW-620 colon): > 100 µM
TGI (OVCAR-4 ovarian): > 100 µM
TGI (M14 melanoma): > 100 µM
TGI (NCI/ADR-RES ovarian): > 100 µM
TGI (U251 CNS): > 100 µM
TGI (NCI-H522 lung): > 100 µM
TGI (HCT-15 colon): > 100 µM
TGI (NCI-H460 lung): > 100 µM
TGI (UO-31 renal): > 100 µM
TGI (HOP-92 NSCLC): 58.7 µM
TGI (MALME-3M melanoma): > 100 µM
TGI (MCF7 breast): > 100 µM
TGI (OVCAR-5 ovarian): > 100 µM
TGI (T-47D breast): > 100 µM
TGI (HCT-116 colon): > 100 µM
TGI (COLO 205 colon): > 100 µM
TGI (OVCAR-8 ovarian): > 100 µM
TGI (TK-10 renal): > 100 µM
TGI (HCC-2998 colon): > 100 µM
TGI (SK-MEL-5 melanoma): > 100 µM
TGI (MOLT-4 leukemia): > 100 µM
TGI (SK-OV-3 ovarian): 86.6 µM
TGI (SF-295 CNS): > 100 µM
TGI (MDA-MB-231 breast): > 100 µM
TGI (CAKI-1 renal): > 100 µM
TGI (ACHN renal): > 100 µM
TGI (MDA-MB-435): > 100 µM
TGI (SN12C renal): > 100 µM
TGI (A498 renal): > 100 µM
TGI (OVCAR-3 ovarian): > 100 µM
TGI (SK-MEL-28 melanoma): > 100 µM
TGI (BT-549 breast): > 100 µM
TGI (RXF 393 renal): > 100 µM
TGI (HT29 colon): > 100 µM
TGI (IGROV1 ovarian): > 100 µM
TGI (UACC-257 melanoma): > 100 µM
TGI (DU-145 prostate): > 100 µM
TGI (LOX IMVI melanoma): > 100 µM
TGI (SNB-19 CNS): > 100 µM
TGI (EKVX NSCLC): > 100 µM
TGI (NCI-H23 lung): > 100 µM

Oc1ccc(C=NCC2CCCN3CCCCC23)cc1 (stereo not drawn)
TGI (NCI-H226 lung): 58.4 µM
TGI (UACC-62 melanoma): > 69.5 µM
TGI (KM12 colon): 35.3 µM
TGI (A549 NSCLC): > 62.8 µM
TGI (SF-539 CNS): > 100 µM
TGI (MDA-N): 39.4 µM
TGI (SK-MEL-2 melanoma): 49.4 µM
TGI (786-0 renal): 36.7 µM
TGI (SF-268 CNS): > 68.5 µM
TGI (K-562 leukemia): > 100 µM
TGI (SNB-75 CNS): > 96.5 µM
TGI (PC-3 prostate): > 100 µM
TGI (HS 578T breast): 85.5 µM
TGI (HOP-62 NSCLC): > 75.1 µM
TGI (OVCAR-4 ovarian): 42.3 µM
TGI (M14 melanoma): > 57.6 µM
TGI (NCI/ADR-RES ovarian): > 100 µM
TGI (U251 CNS): 34.8 µM
TGI (NCI-H522 lung): 47.3 µM
TGI (HCT-15 colon): 63 µM
TGI (NCI-H460 lung): 73.4 µM
TGI (UO-31 renal): > 56.7 µM
TGI (HOP-92 NSCLC): 67.3 µM
TGI (MALME-3M melanoma): 74.1 µM
TGI (MCF7 breast): > 100 µM
TGI (OVCAR-5 ovarian): > 59.5 µM
TGI (T-47D breast): 71.3 µM
TGI (HCT-116 colon): 49.5 µM
TGI (COLO 205 colon): > 66.7 µM
TGI (OVCAR-8 ovarian): > 100 µM
TGI (TK-10 renal): 55.5 µM
TGI (HCC-2998 colon): 40.4 µM
TGI (SK-MEL-5 melanoma): 51.4 µM
TGI (MOLT-4 leukemia): > 100 µM
TGI (SK-OV-3 ovarian): 97.4 µM
TGI (SF-295 CNS): > 76.9 µM
TGI (RPMI-8226 leukemia): 86 µM
TGI (MDA-MB-231 breast): 74.8 µM
TGI (CAKI-1 renal): 39.5 µM
TGI (ACHN renal): 34.9 µM
TGI (MDA-MB-435): 27 µM
TGI (SN12C renal): 41.9 µM
TGI (A498 renal): 83.9 µM
TGI (OVCAR-3 ovarian): > 69.3 µM
TGI (SK-MEL-28 melanoma): 38.6 µM
TGI (BT-549 breast): 61.5 µM
TGI (RXF 393 renal): 43.9 µM
TGI (HT29 colon): 30.7 µM
TGI (IGROV1 ovarian): > 67.8 µM
TGI (UACC-257 melanoma): 62.3 µM
TGI (DU-145 prostate): 31.3 µM
TGI (LOX IMVI melanoma): > 100 µM
TGI (SNB-19 CNS): 63.3 µM
TGI (EKVX NSCLC): > 75.4 µM
TGI (NCI-H23 lung): > 62 µM
